Assay results: PMC12136037, “Type II kinase inhibitors that target Parkinson’s disease–associated LRRK2” (Science Advances, 2025)
“And” between values parts separate entries of the source, which are not always exact repeats. Identical values can stand only once. Like-named read-outs stand apart in the source and are kept apart here.

Experiments:
Assay in all cases: nanoBRET off-target validation
Assay type in all cases: cell-based
MAPK14 = target: T1, MAPK14 (Homo sapiens, UniProt Q16539)
T1 construct: host or cells: HEK293T (ATCC CRL-3216)
T1 sequence (Q16539 whole entry): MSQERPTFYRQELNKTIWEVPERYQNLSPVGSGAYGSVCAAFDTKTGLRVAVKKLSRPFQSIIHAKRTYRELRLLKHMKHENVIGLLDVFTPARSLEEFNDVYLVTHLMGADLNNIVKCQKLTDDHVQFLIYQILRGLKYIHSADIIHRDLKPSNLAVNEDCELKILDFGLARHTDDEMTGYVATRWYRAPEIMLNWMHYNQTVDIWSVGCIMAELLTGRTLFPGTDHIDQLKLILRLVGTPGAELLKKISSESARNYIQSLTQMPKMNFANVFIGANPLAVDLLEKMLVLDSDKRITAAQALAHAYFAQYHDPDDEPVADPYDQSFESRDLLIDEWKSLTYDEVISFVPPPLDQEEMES
Experimental: (§1) The assay was performed as described previously ([61]). In brief, full-length kinases as listed in table S6 were obtained as plasmids cloned in frame with terminal NanoLuc-fusion (gift from Promega; table S6). […] Serially diluted inhibitor and corresponding tracer as listed in table S6 at the Tracer KD concentration taken from TracerDB (tracerdb.org) ([62]) were pipetted into white 384-well plates (Greiner, 781207) using an ECHO acoustic dispenser (Labcyte). The corresponding protein-transfected cells were added and reseeded at a density of 2 × 10^5 cells/ml after trypsinization and resuspending in Opti-MEM without phenol red (Life Technologies). The system was allowed to equilibrate for 3 hours at 37°C/5% CO2 before bioluminescence resonance energy transfer (BRET) measurements. To measure BRET, NanoBRET NanoGlo Substrate + extracellular NanoLuc Inhibitor (Promega, N2540) was added as per the manufacturer’s protocol, and filtered luminescence was measured on a PHERAstar plate reader (BMG Labtech) equipped with a luminescence filter pair [450-nm BP filter (donor) and 610-nm LP filter (acceptor)]. […] (For step-by-step protocol, see www.eubopen.org/sites/www.eubopen.org/files/attachments/2021/NanoBRET-IC50_v1_0.pdf.)

DYRK2 = target: T2, DYRK2 (Homo sapiens, UniProt Q92630)
T2 construct: host or cells: HEK293T (ATCC CRL-3216)
T2 sequence (Q92630 1-601): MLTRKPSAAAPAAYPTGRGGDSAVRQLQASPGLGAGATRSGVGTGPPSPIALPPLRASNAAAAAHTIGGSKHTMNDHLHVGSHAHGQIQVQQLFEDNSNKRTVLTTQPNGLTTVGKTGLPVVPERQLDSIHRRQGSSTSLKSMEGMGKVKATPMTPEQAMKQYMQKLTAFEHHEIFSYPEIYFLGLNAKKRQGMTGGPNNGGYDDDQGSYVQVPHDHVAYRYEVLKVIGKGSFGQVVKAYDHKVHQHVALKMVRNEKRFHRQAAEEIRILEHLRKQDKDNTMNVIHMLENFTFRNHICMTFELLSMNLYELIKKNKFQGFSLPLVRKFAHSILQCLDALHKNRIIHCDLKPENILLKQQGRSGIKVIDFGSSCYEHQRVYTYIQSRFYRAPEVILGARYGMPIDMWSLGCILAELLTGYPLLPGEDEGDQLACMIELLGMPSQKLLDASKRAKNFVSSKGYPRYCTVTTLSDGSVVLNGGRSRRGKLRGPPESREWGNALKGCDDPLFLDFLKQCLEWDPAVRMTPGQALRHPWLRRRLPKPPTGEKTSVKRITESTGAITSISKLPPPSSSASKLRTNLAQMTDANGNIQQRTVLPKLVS
Experimental: as §1

SLK = target: T3, SLK (Homo sapiens, UniProt Q9H2G2)
T3 construct: host or cells: HEK293T (ATCC CRL-3216)
T3 sequence (Q9H2G2 whole entry): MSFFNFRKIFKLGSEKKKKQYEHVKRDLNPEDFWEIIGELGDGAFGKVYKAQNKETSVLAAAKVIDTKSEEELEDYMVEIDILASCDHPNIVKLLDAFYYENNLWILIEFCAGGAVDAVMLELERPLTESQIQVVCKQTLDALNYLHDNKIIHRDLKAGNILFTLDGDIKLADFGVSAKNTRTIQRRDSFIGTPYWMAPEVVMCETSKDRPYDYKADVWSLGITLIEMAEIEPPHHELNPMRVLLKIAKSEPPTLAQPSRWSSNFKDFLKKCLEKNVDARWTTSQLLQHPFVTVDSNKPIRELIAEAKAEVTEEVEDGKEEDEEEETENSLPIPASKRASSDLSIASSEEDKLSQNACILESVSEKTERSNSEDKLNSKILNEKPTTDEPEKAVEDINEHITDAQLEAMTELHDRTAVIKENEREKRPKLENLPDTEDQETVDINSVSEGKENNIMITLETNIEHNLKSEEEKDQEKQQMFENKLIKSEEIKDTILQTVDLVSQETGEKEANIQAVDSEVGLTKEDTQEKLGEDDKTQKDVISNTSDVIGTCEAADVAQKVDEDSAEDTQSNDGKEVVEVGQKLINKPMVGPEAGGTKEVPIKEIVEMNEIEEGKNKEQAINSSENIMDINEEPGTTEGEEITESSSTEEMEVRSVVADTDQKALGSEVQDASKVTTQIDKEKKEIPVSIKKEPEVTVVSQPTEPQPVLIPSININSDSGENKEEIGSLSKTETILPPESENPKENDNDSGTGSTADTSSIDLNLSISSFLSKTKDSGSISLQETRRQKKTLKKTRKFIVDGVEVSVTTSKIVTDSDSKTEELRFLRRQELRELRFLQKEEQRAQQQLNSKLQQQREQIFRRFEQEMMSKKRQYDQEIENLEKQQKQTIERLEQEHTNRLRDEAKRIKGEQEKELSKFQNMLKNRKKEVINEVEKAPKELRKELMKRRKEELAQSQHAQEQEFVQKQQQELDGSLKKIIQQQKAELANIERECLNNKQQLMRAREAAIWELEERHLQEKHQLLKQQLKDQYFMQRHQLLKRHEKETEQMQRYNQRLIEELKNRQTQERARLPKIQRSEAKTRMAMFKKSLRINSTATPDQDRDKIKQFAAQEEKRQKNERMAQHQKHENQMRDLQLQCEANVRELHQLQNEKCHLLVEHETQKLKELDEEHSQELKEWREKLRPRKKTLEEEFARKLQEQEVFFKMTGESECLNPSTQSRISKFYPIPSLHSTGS
Experimental: as §1

CCSc1nc(NC)c2c(-c3cccc(NC(=O)Nc4cc(C(C)(C)C)nn4-c4ccc(C)cc4)c3)c[nH]c2n1 [Compound 32]
nanoBRET response normalized to 0% (no tracer) and 100% (no inhibitor) control (MAPK14; MAPK14, inhibitor 8 nM, two replicates, listed as RN341, 0.008 µM): 98.3554% | remaining activity at 0.008 µM (MAPK14; MAPK14, inhibitor 8 nM, two replicates, read-out: nanoBRET response normalized to 0% (no tracer) and 100% (no inhibitor) control): 100% | nanoBRET response normalized to 0% (no tracer) and 100% (no inhibitor) control (MAPK14; MAPK14, inhibitor 16 nM, two replicates, listed as RN341, 0.016 µM): 103.532% | remaining activity at 0.016 µM (MAPK14; MAPK14, inhibitor 16 nM, two replicates, read-out: nanoBRET response normalized to 0% (no tracer) and 100% (no inhibitor) control): 96.2% | nanoBRET response normalized to 0% (no tracer) and 100% (no inhibitor) control (MAPK14; MAPK14, inhibitor 50 nM, two replicates, listed as RN341, 0.05 µM): 95.4254% | remaining activity at 0.05 µM (MAPK14; MAPK14, inhibitor 50 nM, two replicates, read-out: nanoBRET response normalized to 0% (no tracer) and 100% (no inhibitor) control): 90.1% | nanoBRET response normalized to 0% (no tracer) and 100% (no inhibitor) control (MAPK14; MAPK14, inhibitor 250 nM, two replicates, listed as RN341, […]): 83.4876% | remaining activity at […] (MAPK14; MAPK14, inhibitor 250 nM, two replicates, read-out: nanoBRET response normalized to 0% (no tracer) and 100% (no inhibitor) control): 73.2% | nanoBRET response normalized to 0% (no tracer) and 100% (no inhibitor) control (MAPK14; MAPK14, inhibitor 500 nM, two replicates, listed as RN341, 0.5 µM): 52.7705% | remaining activity at 0.5 µM (MAPK14; MAPK14, inhibitor 500 nM, two replicates, read-out: nanoBRET response normalized to 0% (no tracer) and 100% (no inhibitor) control): 57.4% | nanoBRET response normalized to 0% (no tracer) and 100% (no inhibitor) control (MAPK14; MAPK14, inhibitor 2500 nM, two replicates, listed as RN341, […]): 49.0355% | remaining activity at […] (MAPK14; MAPK14, inhibitor 2500 nM, two replicates, read-out: nanoBRET response normalized to 0% (no tracer) and 100% (no inhibitor) control): 48.5% | nanoBRET response normalized to 0% (no tracer) and 100% (no inhibitor) control (MAPK14; MAPK14, inhibitor 5000 nM, two replicates, listed as RN341, 5 µM): 40.5445% | remaining activity at 5 µM (MAPK14; MAPK14, inhibitor 5000 nM, two replicates, read-out: nanoBRET response normalized to 0% (no tracer) and 100% (no inhibitor) control): 48.2% | nanoBRET response normalized to 0% (no tracer) and 100% (no inhibitor) control (MAPK14; MAPK14, inhibitor 25000 nM, two replicates, listed as RN341, 25 µM): 17.1717% | remaining activity at 25 µM (MAPK14; MAPK14, inhibitor 25000 nM, two replicates, read-out: nanoBRET response normalized to 0% (no tracer) and 100% (no inhibitor) control): 25.4% | EC50 (MAPK14; in cellulo nanoBRET, 293T cells): < 5000 nM and 1700 nM | EC50 (DYRK2): ≥ 20 µM | nanoBRET response normalized to 0% (no tracer) and 100% (no inhibitor) control (DYRK2; DYRK2, inhibitor 8 nM, two replicates, listed as RN341, 0.008 µM): 91.4839% | remaining nanoBRET tracer signal (% of no-inhibitor control) at 0.008 µM (DYRK2; DYRK2, inhibitor 8 nM, two replicates, read-out: nanoBRET response normalized to 0% (no tracer) and 100% (no inhibitor) control): 100% | nanoBRET response normalized to 0% (no tracer) and 100% (no inhibitor) control (DYRK2; DYRK2, inhibitor 16 nM, two replicates, listed as RN341, 0.016 µM): 93.886% | remaining nanoBRET tracer signal (% of no-inhibitor control) at 0.016 µM (DYRK2; DYRK2, inhibitor 16 nM, two replicates, read-out: nanoBRET response normalized to 0% (no tracer) and 100% (no inhibitor) control): 98.2% | nanoBRET response normalized to 0% (no tracer) and 100% (no inhibitor) control (DYRK2; DYRK2, inhibitor 50 nM, two replicates, listed as RN341, 0.05 µM): 96.6464% | remaining nanoBRET tracer signal (% of no-inhibitor control) at 0.05 µM (DYRK2; DYRK2, inhibitor 50 nM, two replicates, read-out: nanoBRET response normalized to 0% (no tracer) and 100% (no inhibitor) control): 100% | remaining nanoBRET tracer signal (% of no-inhibitor control) at […] (DYRK2; DYRK2, inhibitor 250 nM, two replicates, read-out: nanoBRET response normalized to 0% (no tracer) and 100% (no inhibitor) control): 102% and 94.4% | nanoBRET response normalized to 0% (no tracer) and 100% (no inhibitor) control (DYRK2; DYRK2, inhibitor 500 nM, two replicates, listed as RN341, 0.5 µM): 90.6654% | remaining nanoBRET tracer signal (% of no-inhibitor control) at 0.5 µM (DYRK2; DYRK2, inhibitor 500 nM, two replicates, read-out: nanoBRET response normalized to 0% (no tracer) and 100% (no inhibitor) control): 98.4% | nanoBRET response normalized to 0% (no tracer) and 100% (no inhibitor) control (DYRK2; DYRK2, inhibitor 2500 nM, two replicates, listed as RN341, […]): 86.4231% | remaining nanoBRET tracer signal (% of no-inhibitor control) at […] (DYRK2; DYRK2, inhibitor 2500 nM, two replicates, read-out: nanoBRET response normalized to 0% (no tracer) and 100% (no inhibitor) control): 88.8% | nanoBRET response normalized to 0% (no tracer) and 100% (no inhibitor) control (DYRK2; DYRK2, inhibitor 5000 nM, two replicates, listed as RN341, 5 µM): 92.7606% | remaining nanoBRET tracer signal (% of no-inhibitor control) at 5 µM (DYRK2; DYRK2, inhibitor 5000 nM, two replicates, read-out: nanoBRET response normalized to 0% (no tracer) and 100% (no inhibitor) control): 83.2% | nanoBRET response normalized to 0% (no tracer) and 100% (no inhibitor) control (DYRK2; DYRK2, inhibitor 25000 nM, two replicates, listed as RN341, 25 µM): 54.6216% | remaining nanoBRET tracer signal (% of no-inhibitor control) at 25 µM (DYRK2; DYRK2, inhibitor 25000 nM, two replicates, read-out: nanoBRET response normalized to 0% (no tracer) and 100% (no inhibitor) control): 47.6% | EC50 (SLK): > 20 µM | nanoBRET response normalized to 0% (no tracer) and 100% (no inhibitor) control (SLK; SLK, inhibitor 8 nM, two replicates, listed as RN341, 0.008 µM): 107.417% | NanoBRET tracer signal (% of no-inhibitor control) at 0.008 µM (SLK; SLK, inhibitor 8 nM, two replicates, read-out: nanoBRET response normalized to 0% (no tracer) and 100% (no inhibitor) control): 106% | nanoBRET response normalized to 0% (no tracer) and 100% (no inhibitor) control (SLK; SLK, inhibitor 16 nM, two replicates, listed as RN341, 0.016 µM): 115.381% | NanoBRET tracer signal (% of no-inhibitor control) at 0.016 µM (SLK; SLK, inhibitor 16 nM, two replicates, read-out: nanoBRET response normalized to 0% (no tracer) and 100% (no inhibitor) control): 113% | NanoBRET tracer signal (% of no-inhibitor control) at 0.05 µM (SLK; SLK, inhibitor 50 nM, two replicates, read-out: nanoBRET response normalized to 0% (no tracer) and 100% (no inhibitor) control): 102% and 106% | nanoBRET response normalized to 0% (no tracer) and 100% (no inhibitor) control (SLK; SLK, inhibitor 250 nM, two replicates, listed as RN341, […]): 119.576% | NanoBRET tracer signal (% of no-inhibitor control) at […] (SLK; SLK, inhibitor 250 nM, two replicates, read-out: nanoBRET response normalized to 0% (no tracer) and 100% (no inhibitor) control): 107% | nanoBRET response normalized to 0% (no tracer) and 100% (no inhibitor) control (SLK; SLK, inhibitor 500 nM, two replicates, listed as RN341, 0.5 µM): 122.526% | NanoBRET tracer signal (% of no-inhibitor control) at 0.5 µM (SLK; SLK, inhibitor 500 nM, two replicates, read-out: nanoBRET response normalized to 0% (no tracer) and 100% (no inhibitor) control): 118% | nanoBRET response normalized to 0% (no tracer) and 100% (no inhibitor) control (SLK; SLK, inhibitor 2500 nM, two replicates, listed as RN341, […]): 114.832% | NanoBRET tracer signal (% of no-inhibitor control) at […] (SLK; SLK, inhibitor 2500 nM, two replicates, read-out: nanoBRET response normalized to 0% (no tracer) and 100% (no inhibitor) control): 117% | nanoBRET response normalized to 0% (no tracer) and 100% (no inhibitor) control (SLK; SLK, inhibitor 5000 nM, two replicates, listed as RN341, 5 µM): 116.499% | NanoBRET tracer signal (% of no-inhibitor control) at 5 µM (SLK; SLK, inhibitor 5000 nM, two replicates, read-out: nanoBRET response normalized to 0% (no tracer) and 100% (no inhibitor) control): 105% | nanoBRET response normalized to 0% (no tracer) and 100% (no inhibitor) control (SLK; SLK, inhibitor 25000 nM, two replicates, listed as RN341, 25 µM): 86.6362% | NanoBRET tracer signal (% of no-inhibitor control) at 25 µM (SLK; SLK, inhibitor 25000 nM, two replicates, read-out: nanoBRET response normalized to 0% (no tracer) and 100% (no inhibitor) control): 83.9%
